Laboratory results from ChEMBL document CHEMBL5584347, “Development of Nitric Oxide Releasing Oxoisoaporphines with Antidepressant Activities by Simultaneously Regulating MAO-A and SERT” (J Med Chem, 2024).
Activity calls are given as the source filed them. The calls are words filed in the database; no cut-off is given here.

Experiments:
[1] = Cytotoxicity against human L02 cells incubated for 24 hrs by MTT assay; assay type: toxicity, cell-based
[2] = Cytotoxicity against human SH-SY5Y cells incubated for 24 hrs by MTT assay; assay type: toxicity, cell-based
[3] = Cytotoxicity against rat PC-12 cells incubated for 24 hrs by MTT assay; assay type: toxicity, cell-based
[4] = test system: PC-12; test: Neuroprotective activity against corticosterone-induced cell injury in rat PC-12 cells assessed as increase in cell viability at 0.1 to 1 uM incubated for 24 hrs by CCK8 assay; assay type: functional, cell-based; details: dose 0.1-1 µM
[5] = test system: Danio rerio; test: Antidepressant activity in reserpine-induced depressive zebrafish model assessed as increase in total distance traveled at 1 uM preadministered with reserpine for 40 mins followed by compound administration and measured after 7 days by open field test; assay type: functional, organism-based; details: time 7.0 day
[6] = test system: Danio rerio; test: Antidepressant activity in reserpine-induced depressive zebrafish model assessed as increase in speed of movement at 1 uM preadministered with reserpine for 40 mins followed by compound administration and measured after 7 days by open field test; assay type: functional, organism-based; details: time 7.0 day
[7] = test system: Danio rerio; test: Antidepressant activity in reserpine-induced depressive zebrafish model assessed as reduction in immobility time at 1 uM preadministered with reserpine for 40 mins followed by compound administration and measured after 7 days by open field test; assay type: functional, organism-based; details: time 7.0 day
[8] = test system: Danio rerio; test: Antidepressant activity in reserpine-induced depressive zebrafish model assessed as increase in total distance traveled at 1 uM preadministered with reserpine for 40 mins followed by compound administration and measured after 7 days by novel tank test; assay type: functional, organism-based; details: time 7.0 day
[9] = test system: Danio rerio; test: Antidepressant activity in reserpine-induced depressive zebrafish model assessed as increase in speed of movement at 1 uM preadministered with reserpine for 40 mins followed by compound administration and measured after 7 days by novel tank test; assay type: functional, organism-based; details: time 7.0 day
[10] = test system: Danio rerio; test: Antidepressant activity in reserpine-induced depressive zebrafish model assessed as increase in time spend in upper part at 1 uM preadministered with reserpine for 40 mins followed by compound administration and measured after 7 days by novel tank test; assay type: functional, organism-based; details: time 7.0 day
[11] = test system: Mus musculus; test: Antidepressant activity in chronic unpredictable mild stress induced depressive C57 mouse model assessed as increase in total distance traveled at 10 mg/kg administered continuously for 2 weeks post 5 weeks of chronic unpredictable mild stress by open field test; assay type: functional, organism-based
[12] = test system: Mus musculus; test: Antidepressant activity in chronic unpredictable mild stress induced depressive C57 mouse model assessed as increase in movement at 10 mg/kg administered continuously for 2 weeks post 5 weeks of chronic unpredictable mild stress by open field test; assay type: functional, organism-based
[13] = test system: Mus musculus; test: Antidepressant activity in reserpine induced depressive mouse model assessed as 5-HT level in brain at 10 mg/kg preadministered with reserpine for 3 days followed by compound addition from day 4 to 10 by LC-MS analysis (reference value: 186.46 ng/ml); assay type: functional; details: time 7 day
[14] = test system: Mus musculus; test: Upregulation of 5-HT level in mouse at 10 mg/kg in presence of isosorbide mononitrate; assay type: functional, organism-based
[15] = test system: Mus musculus; test: Upregulation of 5-HT level in mouse at 10 mg/kg in presence of oxoisoaporphines; assay type: functional, organism-based

Structure (SMILES)	IC50 at 24 h [1] [µM]	IC50 at 24 h [2] [µM]	IC50 at 24 h [3] [µM]	Activity [4]	further results
O=C1c2ccccc2-c2nccc3cc(OCCOc4no[n+]([O-])c4S(=O)(=O)c4ccccc4)cc1c23	> 100	> 100	> 10	inactive	
O=C1c2ccccc2-c2nccc3cc(OCCCCCOc4no[n+]([O-])c4S(=O)(=O)c4ccccc4)cc1c23	> 100	> 100	> 10	inactive	
CNCCC(Oc1ccc(C(F)(F)F)cc1)c1ccccc1 (configuration not stated) [FLUOXETINE]					Activity [5]: Active; Activity [6]: Active; Activity [7]: Active; Activity [8]: Active; Activity [9]: Active; Activity [10]: Active; Activity [11]: Active; Activity [12]: Active; Activity [13]: 223.45 ng/mL
O=C1c2ccccc2-c2nccc3cc(OCCO[N+](=O)[O-])cc1c23	> 100	> 100	> 10	Active	
O=C1c2ccccc2-c2nccc3cccc1c23					Activity [14]: Active
O=C1c2ccccc2-c2nccc3cc(OCCCCCCOc4no[n+]([O-])c4S(=O)(=O)c4ccccc4)cc1c23	> 100	> 100	> 10	inactive	
O=[N+]([O-])O[C@@H]1CO[C@H]2[C@@H]1OC[C@@H]2O					Activity [15]: Active
O=C1c2ccccc2-c2nccc3cc(OCCCCO[N+](=O)[O-])cc1c23	> 100	> 100	> 10	Active	
O=C1c2ccccc2-c2nccc3cc(OCCCOc4no[n+]([O-])c4S(=O)(=O)c4ccccc4)cc1c23	> 100	> 100	> 10	inactive	
O=C1c2ccccc2-c2nccc3cc(OCCCCCCO[N+](=O)[O-])cc1c23	> 100	> 100	> 10	Active	
O=C1c2ccccc2-c2nccc3cc(OCCCCCO[N+](=O)[O-])cc1c23	> 100	> 100	> 10	Active	
O=C1c2ccccc2-c2nccc3cc(OCCCCOc4no[n+]([O-])c4S(=O)(=O)c4ccccc4)cc1c23	> 100	> 100	> 10	inactive	
